Experimental data reported in patent US12702691B2, “Extract of an herbal composition as antimicrobial and/or antibiofilm agent” (ALPHANOSOS S.A.S., priority 2016, dated 2026).

How the values were obtained:
B-A17 = experiment: Planktonic growth with extract and antibiotic relative to growth without both (Example 14); assay type: cell-based
Protocol: (§1) Starting from the herbal composition, the corresponding water extracts (or processed samples) was prepared according to the previously described Method B using 2.06 g of the above herbal composition with 40 mL water with 100 g/L sucrose for water extraction and including the decantation step before filtration. In an independent water extract preparation without sucrose, it has been measured that 2.06 g/40 mL of herbal composition corresponds to 14.5 g/L as deduced from the weight of the lyophilized dry herbal extract.
(§2) In Example 14 we calculate the growth of the bacteria in presence of antibiotic and/or herbal mix relative to the growth in the absence of both antibiotic and herbal mix extract.

B-A21 = experiment: as above; assay type: cell-based
Protocol: as §1, §2

[1] = M[20C]-576 0 μg/mL, antibiotic 3.91 μg/mL
[2] = M[20C]-576 0 μg/mL, antibiotic 7.81 μg/mL
[3] = M[20C]-576 0 μg/mL, antibiotic 15.63 μg/mL
[4] = M[20C]-576 0 μg/mL, antibiotic 31.25 μg/mL
[5] = M[20C]-576 0 μg/mL, antibiotic 62.50 μg/mL
[6] = M[20C]-576 0 μg/mL, antibiotic 125 μg/mL
[7] = M[20C]-576 0 μg/mL, antibiotic 250 μg/mL
[8] = M[20C]-576 0 μg/mL, antibiotic 500 μg/mL
[9] = M[20C]-576 0 μg/mL, antibiotic 1000 μg/mL
[10] = M[20C]-576 0 μg/mL, antibiotic 2000 μg/mL
[11] = M[20C]-576 0 μg/mL, antibiotic 4000 μg/mL
[12] = M[20C]-576 90.6 μg/mL, antibiotic 3.91 μg/mL
[13] = M[20C]-576 90.6 μg/mL, antibiotic 7.81 μg/mL
[14] = M[20C]-576 90.6 μg/mL, antibiotic 15.63 μg/mL
[15] = M[20C]-576 90.6 μg/mL, antibiotic 31.25 μg/mL
[16] = M[20C]-576 90.6 μg/mL, antibiotic 62.50 μg/mL
[17] = M[20C]-576 90.6 μg/mL, antibiotic 125 μg/mL
[18] = M[20C]-576 90.6 μg/mL, antibiotic 250 μg/mL
[19] = M[20C]-576 90.6 μg/mL, antibiotic 500 μg/mL
[20] = M[20C]-576 90.6 μg/mL, antibiotic 1000 μg/mL
[21] = M[20C]-576 90.6 μg/mL, antibiotic 2000 μg/mL
[22] = M[20C]-576 90.6 μg/mL, antibiotic 4000 μg/mL
[23] = M[20C]-576 181.3 μg/mL, antibiotic 3.91 μg/mL
[24] = M[20C]-576 181.3 μg/mL, antibiotic 7.81 μg/mL
[25] = M[20C]-576 181.3 μg/mL, antibiotic 15.63 μg/mL
[26] = M[20C]-576 181.3 μg/mL, antibiotic 31.25 μg/mL
[27] = M[20C]-576 181.3 μg/mL, antibiotic 62.50 μg/mL
[28] = M[20C]-576 181.3 μg/mL, antibiotic 125 μg/mL
[29] = M[20C]-576 181.3 μg/mL, antibiotic 250 μg/mL
[30] = M[20C]-576 181.3 μg/mL, antibiotic 500 μg/mL
[31] = M[20C]-576 181.3 μg/mL, antibiotic 1000 μg/mL
[32] = M[20C]-576 181.3 μg/mL, antibiotic 2000 μg/mL
[33] = M[20C]-576 181.3 μg/mL, antibiotic 4000 μg/mL

Q: Which “planktonic growth relative to the growth in the absence of both extract and antibiotic” value (“planktonic growth relative to the growth” for short) (B-A17; [1]) does the source give for CN[C@H](CC(C)C)C(=O)N[C@H]1C(=O)N[C@@H](CC(N)=O)C(=O)N[C@H]2C(=O)N[C@H]3C(=O)N[C@H](C(=O)N[C@H](C(=O)O)c4cc(O)cc(O)c4-c4cc3ccc4O)[C@H](O)c3ccc(c(Cl)c3)Oc3cc2cc(c3O[C@@H]2O[C@H](CO)[C@@H](O)[C@H](O)[C@H]2O[C@H]2C[C@](C)(N)[C@H](O)[C@H](C)O2)Oc2ccc(cc2Cl)[C@H]1O [Vancomycin] here?
A: 135%

Q: And the “planktonic growth relative to the growth” value (B-A17; [2])?
A: 118%

Q: What about the “planktonic growth relative to the growth” value (B-A17; [3]) of the same compound?
A: 114%

Q: And the “planktonic growth relative to the growth” value (B-A17; [4])?
A: 117%

Q: What about the “planktonic growth relative to the growth” value (B-A17; [5]) of the same compound?
A: 115%

Q: What about the “planktonic growth relative to the growth” value (B-A17; [6]) of the same compound?
A: 116%

Q: And the “planktonic growth relative to the growth” value (B-A17; [7])?
A: 118%

Q: What about the “planktonic growth relative to the growth” value (B-A17; [8]) of the same compound?
A: 128%

Q: And the “planktonic growth relative to the growth” value (B-A17; [9])?
A: 117%

Q: And the “planktonic growth relative to the growth” value (B-A17; [10])?
A: 0%

Q: And the “planktonic growth relative to the growth” value (B-A17; [11])?
A: 0%

Q: What about the “planktonic growth relative to the growth” value (B-A17; [12]) of the same compound?
A: 65%

Q: And the “planktonic growth relative to the growth” value (B-A17; [13])?
A: 66%

Q: And the “planktonic growth relative to the growth” value (B-A17; [14])?
A: 65%

Q: And the “planktonic growth relative to the growth” value (B-A17; [15])?
A: 74%

Q: And the “planktonic growth relative to the growth” value (B-A17; [16])?
A: 70%

Q: And the “planktonic growth relative to the growth” value (B-A17; [17])?
A: 67%

Q: And the “planktonic growth relative to the growth” value (B-A17; [18])?
A: 66%

Q: What about the “planktonic growth relative to the growth” value (B-A17; [19]) of the same compound?
A: 63%

Q: And the “planktonic growth relative to the growth” value (B-A17; [20])?
A: 0%

Q: What about the “planktonic growth relative to the growth” value (B-A17; [21]) of the same compound?
A: 0%

Q: And the “planktonic growth relative to the growth” value (B-A17; [22])?
A: 0%

Q: And the “planktonic growth relative to the growth” value (B-A17; [23])?
A: 40%

Q: What about the “planktonic growth relative to the growth” value (B-A17; [24]) of the same compound?
A: 41%

Q: And the “planktonic growth relative to the growth” value (B-A17; [25])?
A: 53%

Q: What about the “planktonic growth relative to the growth” value (B-A17; [26]) of the same compound?
A: 55%

Q: And the “planktonic growth relative to the growth” value (B-A17; [27])?
A: 55%

Q: And the “planktonic growth relative to the growth” value (B-A17; [28])?
A: 54%

Q: What about the “planktonic growth relative to the growth” value (B-A17; [29]) of the same compound?
A: 46%

Q: What about the “planktonic growth relative to the growth” value (B-A17; [30]) of the same compound?
A: 47%

Q: And the “planktonic growth relative to the growth” value (B-A17; [31])?
A: −3%

Q: And the “planktonic growth relative to the growth” value (B-A17; [32])?
A: −3%

Q: And the “planktonic growth relative to the growth” value (B-A17; [33])?
A: −2%

Q: And the “planktonic growth relative to the growth” value (B-A21; [1])?
A: 118%

Q: What about the “planktonic growth relative to the growth” value (B-A21; [2]) of the same compound?
A: 117%

Q: What about the “planktonic growth relative to the growth” value (B-A21; [3]) of the same compound?
A: 113%

Q: And the “planktonic growth relative to the growth” value (B-A21; [4])?
A: 117%

Q: What about the “planktonic growth relative to the growth” value (B-A21; [5]) of the same compound?
A: 110%

Q: And the “planktonic growth relative to the growth” value (B-A21; [6])?
A: 102%

Q: And the “planktonic growth relative to the growth” value (B-A21; [7])?
A: 102%

Q: What about the “planktonic growth relative to the growth” value (B-A21; [8]) of the same compound?
A: 102%

Q: And the “planktonic growth relative to the growth” value (B-A21; [9])?
A: 0%

Q: What about the “planktonic growth relative to the growth” value (B-A21; [10]) of the same compound?
A: 0%

Q: What about the “planktonic growth relative to the growth” value (B-A21; [11]) of the same compound?
A: 0%

Q: And the “planktonic growth relative to the growth” value (B-A21; [12])?
A: 102%

Q: And the “planktonic growth relative to the growth” value (B-A21; [13])?
A: 82%

Q: And the “planktonic growth relative to the growth” value (B-A21; [14])?
A: 88%

Q: And the “planktonic growth relative to the growth” value (B-A21; [15])?
A: 77%

Q: And the “planktonic growth relative to the growth” value (B-A21; [16])?
A: 76%

Q: And the “planktonic growth relative to the growth” value (B-A21; [17])?
A: 77%

Q: What about the “planktonic growth relative to the growth” value (B-A21; [18]) of the same compound?
A: 74%

Q: And the “planktonic growth relative to the growth” value (B-A21; [19])?
A: 67%

Q: What about the “planktonic growth relative to the growth” value (B-A21; [20]) of the same compound?
A: 0%

Q: And the “planktonic growth relative to the growth” value (B-A21; [21])?
A: 0%

Q: What about the “planktonic growth relative to the growth” value (B-A21; [22]) of the same compound?
A: 0%

Q: And the “planktonic growth relative to the growth” value (B-A21; [23])?
A: 48%

Q: What about the “planktonic growth relative to the growth” value (B-A21; [24]) of the same compound?
A: 63%

Q: What about the “planktonic growth relative to the growth” value (B-A21; [25]) of the same compound?
A: 57%

Q: What about the “planktonic growth relative to the growth” value (B-A21; [26]) of the same compound?
A: 60%

Q: And the “planktonic growth relative to the growth” value (B-A21; [27])?
A: 57%

Q: What about the “planktonic growth relative to the growth” value (B-A21; [28]) of the same compound?
A: 41%

Q: What about the “planktonic growth relative to the growth” value (B-A21; [29]) of the same compound?
A: 57%

Q: What about the “planktonic growth relative to the growth” value (B-A21; [30]) of the same compound?
A: 32%

Q: What about the “planktonic growth relative to the growth” value (B-A21; [31]) of the same compound?
A: −2%

Q: What about the “planktonic growth relative to the growth” value (B-A21; [32]) of the same compound?
A: −3%

Q: And the “planktonic growth relative to the growth” value (B-A21; [33])?
A: 0%
